From patent US9926340B2, “NAD analogs and methods of using said NAD analogs in determining ribosylation of proteins with PARP mutants” (The Board of Regents of the University of Texas System, priority 2015, dated 2018)
Entries after “also recorded” stand apart in the source; their conditions may differ.

Target: T1, asPARP-1 in nuclei from Parp1−/− MEFs (Mus musculus, UniProt P11103, L876A)
T1 construct: expressed in transfected cells; host or cells: Parp1-/- mouse embryonic fibroblasts, lentiviral transduction, isolated nuclei
T1 sequence (P11103 whole entry L876A): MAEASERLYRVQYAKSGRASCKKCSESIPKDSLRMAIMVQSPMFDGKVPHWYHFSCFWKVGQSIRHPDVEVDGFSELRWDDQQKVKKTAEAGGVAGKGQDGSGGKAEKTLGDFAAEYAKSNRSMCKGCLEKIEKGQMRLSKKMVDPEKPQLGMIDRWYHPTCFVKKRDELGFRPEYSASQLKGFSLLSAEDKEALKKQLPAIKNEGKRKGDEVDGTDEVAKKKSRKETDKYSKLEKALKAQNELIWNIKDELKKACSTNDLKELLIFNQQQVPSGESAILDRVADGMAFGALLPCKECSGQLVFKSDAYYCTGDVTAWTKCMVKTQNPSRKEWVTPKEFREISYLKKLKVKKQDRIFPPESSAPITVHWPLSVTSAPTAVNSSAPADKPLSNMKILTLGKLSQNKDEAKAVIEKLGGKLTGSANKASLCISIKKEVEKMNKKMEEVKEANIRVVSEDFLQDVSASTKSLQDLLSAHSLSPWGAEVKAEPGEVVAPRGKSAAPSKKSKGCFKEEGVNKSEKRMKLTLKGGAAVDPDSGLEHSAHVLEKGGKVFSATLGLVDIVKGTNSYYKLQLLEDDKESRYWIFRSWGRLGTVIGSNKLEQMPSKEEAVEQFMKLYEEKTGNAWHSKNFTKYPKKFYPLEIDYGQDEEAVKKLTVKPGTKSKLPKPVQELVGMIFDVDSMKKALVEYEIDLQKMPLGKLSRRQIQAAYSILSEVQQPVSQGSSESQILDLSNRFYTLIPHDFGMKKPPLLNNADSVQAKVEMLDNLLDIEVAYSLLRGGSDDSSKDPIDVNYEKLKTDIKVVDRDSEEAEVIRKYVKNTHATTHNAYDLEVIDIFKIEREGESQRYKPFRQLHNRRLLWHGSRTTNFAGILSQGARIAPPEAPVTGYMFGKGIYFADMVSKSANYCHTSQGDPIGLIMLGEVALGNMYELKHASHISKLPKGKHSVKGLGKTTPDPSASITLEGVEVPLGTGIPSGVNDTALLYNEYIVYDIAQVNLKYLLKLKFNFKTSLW
Assay: 8-Bu(3-yne)T-ADP-ribosylation reactions in intact nuclei
Format: cell-based
Settings: Parp1−/− MEF nuclei, 250 μM analog, 30 minutes at 25° C.
Description: 50% confluent MEF cells expressing asPARP-1 were harvested with cold PBS using a rubber policeman and collected by centrifugation for 5 minutes at 800 RCF at 4° C. Cells were resuspended for 10 minutes to facilitate cell swelling in Nuclear Isolation Buffer (10 mM HEPES, pH 8.0, 2 mM MgCl2, 3 mM CaCl2, 300 mM Sucrose, 1 mM DTT, 1 mM PMSF, 4 mM Benzamidine, 1 μM Aprotinin, 100 μM Leupeptin, 1 μM Pepstatin A, and 1 in 250 parts SIGMA Phosphatase Inhibitor Cocktails 2 and 3). Nuclei were released from cells by addition of NP-40 to 0.65% under medium vortex and immediately collected by centrifugation at 10,000 RCF for 1 minute at 4° C. […]
Following 8-Bu(3-yne)T-ADP-ribosylation in intact nuclei from MEFs as described above, the nuclei were washed once with Nuclei Click Reaction Buffer (10 mM HEPES, pH 8.0, 10 mM NaCl, 10 mM spermidine, 0.1% NP-40, with freshly added protease inhibitors) and then clicked twice to Alexa Fluor 488 by the sequential addition of 100 μM azido-Alexa Fluor 488 (Life Technologies), a pre-formed complex of CuSO4:THPTA (1.0 mM:5.0 mM), and 5 mM sodium ascorbate. […] Fluorescence was visualized via confocal microscopy using a Leica TCS SP2 Confocal Microscope.

C#CCCSc1nc2c(N)ncnc2n1[C@@H]1O[C@H](COP(=O)(O)OP(=O)(O)OC[C@H]2O[C@@H]([n+]3cccc(C(N)=O)c3)C(O)C2O)[C@H](O)C1O (stereo partly shown) [8-Bu(3-yne)T-NAD^+]
ADP-ribosylation in intact nuclei expressing asPARP-1: catalytically active; also recorded: clearly evident
